Experimental data published in patent publication US10399949B2, “NK1 receptor antagonist” (KISSEI PHARMACEUTICAL CO., LTD., priority 2015, dated 2019).

Legend:
human NK1 receptor [1] = biological target: T1, human NK1 receptor (Homo sapiens, UniProt P25103); assay: Affinity for human NK1 receptor (125I-substance P receptor binding test, membrane fraction); settings: membrane fraction of human NK1 receptor-expressing 293T cells, room temperature 60 minutes, read-out: pIC50 (inverse logarithm of the concentration required for 50% inhibition of 125I-substance P binding) (converted)
T1 construct: expressed in transfected cells; host or cells: 293T cells (RIKEN), transient transfection with pcDNA3.1(-) plasmid
Description: Affinity for Human NK1 Receptor
(3) Measurement of Binding Affinity to Human NK1 Receptor
(3-1) Preparation of Membrane Fraction from Human NK1 Receptor-Expressing Cells
Human NK1 receptor-expressing cells were prepared in a 175 cm^2 culture flask (Nippon Becton Dickinson). The formation of a complex of the human NK1 receptor expression plasmid and Lipofectamine 2000 was performed by calculating the culture area ratio and increasing the scale of the method described in the above 2-4 by the ratio. The human NK1 receptor-expressing cells were collected in a buffer solution for the membrane fraction preparation (50 mM Tris (Wako Pure Chemical), 120 mM sodium chloride (Wako Pure Chemical Industries), 5 mM potassium chloride (Wako Pure Chemical Industries), 1 mM ethylenediaminetetraacetic acid (Sigma), 0.002 mg/mL chymostatin (Peptide Institute), 0.04 mg/bacitracin (Wako Pure Chemical Industries), 0.005 mg/mL phosphoramidon (Peptide Institute) and 0.5 mM phenylmethylsulfonyl fluoride (Wako Pure Chemical Industries), pH7.4) and centrifuged at 1,880 g for 10 minutes, and the cell sediment was suspended in the buffer solution for the membrane fraction preparation. After freezing and thawing the cells once, the cells were homogenized using a Dounce-type homogenizer (cooled on ice, 1000 rpm, 20 times). The homogenized cell suspension was centrifuged at 20,000 rpm for 10 minutes, and the supernatant was removed to obtain cell sediment. The cell sediment was suspended again in the buffer solution for the membrane fraction preparation and homogenized using a Dounce-type homogenizer (cooled on ice, 1000 rpm, 30 times). The cell suspension was centrifuged at 20,000 rpm for 10 minutes, and the supernatant was removed to obtain cell sediment. The same homogenization and centrifugation were repeated again, and final cell sediment was obtained. The final cell sediment was suspended in a buffer solution for the receptor binding test (50 mM Tris (Wako Pure Chemical Industries), 3 mM manganese chloride (Wako Pure Chemical Industries), 0.002 mg/mL chymostatin (Peptide Institute), 0.04 mg/bacitracin (Wako Pure Chemical Industries) and 0.02% bovine serum albumin (Sigma), pH 7.4), and the protein concentration was measured using BCA Protein Assay Kit (Pierce).
(3-2) Receptor Binding Test
The buffer solution for the receptor binding test was dispensed to the wells of a 96-well assay plate (Greiner) at 22.5 μL/well. DMSO solutions of a test compound, which were prepared at an 80-time higher concentration using 100% dimethyl sulfoxide (DMSO), were added to the wells at 2.5 μL/well (final concentrations of 1 nM to 100 nM), and the solutions were mixed. As a radiolabeled ligand, ^125I-substance P (Substance P, [^125I]Tyr^8-, PerkinElmer) was used. ^125I-substance P was diluted with the buffer solution for the receptor binding test to a concentration resulting in […] and added to the 96-well assay plate, and the solutions were mixed. The membrane fraction prepared from the human NK1 receptor-expressing cells was diluted with the buffer solution for the receptor binding test to a concentration resulting in 8 to 10 μg/well, suspended until the suspension became in such a homogenous state that the suspension could flow through a 27G injection needle smoothly and then added to the 96-well assay plate at 150 μL/well. Then, the plate was incubated at room temperature for 60 minutes while shaking the plate. […]

human NK1 receptor [2] = biological target: T1, human NK1 receptor; assay: Inhibitory effect on human NK1 receptor (substance P-induced increase in intracellular calcium concentration); assay type: cell-based; settings: HEK-293T; substance P 0.1 μM; compound 1 μM; human NK1 receptor-expressing 293T cells; vehicle = 100%; read-out: SPRR (%) (Substance P-Response Remaining, intracellular calcium concentration)
Description: Inhibitory Effect on Human NK1 Receptor
(1) Preparation of Human NK1 Receptor-Expressing Cells
Human NK1 receptor-expressing cells were prepared by the same methods as those described in 2-3 and 2-4 of Test Example 1.
(2) Study on Inhibitory Effect on Increase in Intracellular Calcium Concentration
The human NK1 receptor-expressing cells were washed with 300 μL/well of a washing solution (20 mM HEPES/Hanks Balanced Salt Solution (HBSS) pH7.3). A fluorescent calcium indicator (Fluo-4 Direct Calcium Assay Kit, Life Technologies, containing 0.42 mM probenecid and 0.1% bovine serum albumin, prepared according to the protocol of the product) was added to the wells at 150 μL/well, and the plate was incubated at 37° C. for 30 minutes in an incubator. Then, DMSO solutions of a test compound, which were prepared at an 80-time higher concentration using 100% dimethyl sulfoxide (DMSO), were added to the wells at 2.5 μL/well (final concentrations of 0.1, 1 and 10 μM), and the solutions were mixed. Then, the plate was further incubated at 37° C. for 30 minutes in an incubator. After 30 minutes, the intracellular calcium concentrations were measured immediately.
The intracellular calcium concentrations were each measured as a fluorescent signal using FDSS® 7000 (Hamamatsu Photonics). A substance P (Peptide Institute, Inc.) solution which was prepared at 0.4 μM or 4 μM using an assay buffer (20 mM HEPES/Hanks Balanced Salt Solution (HBSS) pH 7.3 containing 0.1% bovine serum albumin) was added automatically to each well at 50 μL/well (final concentration of 0.1 or 1 μM) 10 seconds after starting reading, and the fluorescent signal was measured up to 120 seconds.
The intracellular calcium concentration (%) of the cells to which a test compound was added was calculated by the equation below, where the fluorescent signal of the group to which the vehicle (DMSO) was added was regarded as 100%, and the fluorescent signal before the addition of substance P was regarded as 0%. Intracellular calcium concentration (%)=(Fluorescent signal of test compound addition group)/(Fluorescent signal of vehicle addition group)×100
The intracellular calcium concentration (%) calculated was regarded as the remaining agonist activity of substance P (Substance P-Response Remaining: SPRR). In the table, Ex. No. means the Example number. SPRR (%) means the value obtained when the concentration of substance P was 0.1 μM and the concentration of the compound was 1 μM.

human CYP3A4 = biological target: T2, human CYP3A4 (Homo sapiens, UniProt P08684); assay: Inhibitory effect on CYP3A4 (Luciferin-IPA); assay type: in vitro ADME; settings: test compound 10 μM, 30-minutes pre-incubation, Luciferin-IPA 3 μM
T2 construct: purchased BD Biosciences
Description: Inhibitory Effect on CYP3A4
The dimethyl sulfoxide (DMSO) solution of the test compound with a concentration 1000 times higher than the evaluation concentration was prepared, and a reaction solution was prepared by diluting the solution. Enzyme reaction was performed by incubating in a potassium phosphate buffer solution (pH 7.4) containing 1 μM to 10 μM test compound, 3.2 mM magnesium chloride, 0.2 pmol human CYP3A4 (BD Biosciences), 0.5 mM reduced nicotinamide adenine dinucleotide phosphate (NADPH) and 3 μM Luciferin-IPA (Promega) at 37° C. for 10 minutes. The volume of the reaction solution was 50 μL/well. The 30-minutes pre-incubation group was incubated at 37° C. for 30 minutes before adding the substrate, the Luciferin-IPA solution (12.5 μL/well). At the end of the enzyme reaction, 50 μL/well of a Luciferin detection reagent (Promega) was added to the wells, and the plate was left at room temperature for 20 minutes. Then, the emission intensities were measured with Infinite M1000 (TECAN), and the enzyme activities (%) relative to the value of the group to which the test compound was not added. As a comparative example, aprepitant, which is an NK1 receptor antagonist, was tested in the same manner.
Test was measured by the above test method, and the results are shown in Table 9 when the concentration of the test compound was 10 μM. In the table, Ex. No. means the Example number, and Pre-incubation (30 min) (%) means the enzyme activities (%) of the 30-minutes pre-incubation groups using the test compounds.

T1 sequence (P25103 whole entry): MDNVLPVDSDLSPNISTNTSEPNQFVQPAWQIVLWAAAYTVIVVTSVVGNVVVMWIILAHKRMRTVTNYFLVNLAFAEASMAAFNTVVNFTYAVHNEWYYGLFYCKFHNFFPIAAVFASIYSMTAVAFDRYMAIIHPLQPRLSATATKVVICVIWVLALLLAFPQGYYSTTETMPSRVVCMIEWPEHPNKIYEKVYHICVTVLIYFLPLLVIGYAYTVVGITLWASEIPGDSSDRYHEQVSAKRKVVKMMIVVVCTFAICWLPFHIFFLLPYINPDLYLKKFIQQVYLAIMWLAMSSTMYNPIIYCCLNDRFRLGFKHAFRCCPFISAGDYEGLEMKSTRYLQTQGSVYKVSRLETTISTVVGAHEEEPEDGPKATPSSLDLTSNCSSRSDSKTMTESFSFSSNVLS
T2 sequence (P08684 whole entry): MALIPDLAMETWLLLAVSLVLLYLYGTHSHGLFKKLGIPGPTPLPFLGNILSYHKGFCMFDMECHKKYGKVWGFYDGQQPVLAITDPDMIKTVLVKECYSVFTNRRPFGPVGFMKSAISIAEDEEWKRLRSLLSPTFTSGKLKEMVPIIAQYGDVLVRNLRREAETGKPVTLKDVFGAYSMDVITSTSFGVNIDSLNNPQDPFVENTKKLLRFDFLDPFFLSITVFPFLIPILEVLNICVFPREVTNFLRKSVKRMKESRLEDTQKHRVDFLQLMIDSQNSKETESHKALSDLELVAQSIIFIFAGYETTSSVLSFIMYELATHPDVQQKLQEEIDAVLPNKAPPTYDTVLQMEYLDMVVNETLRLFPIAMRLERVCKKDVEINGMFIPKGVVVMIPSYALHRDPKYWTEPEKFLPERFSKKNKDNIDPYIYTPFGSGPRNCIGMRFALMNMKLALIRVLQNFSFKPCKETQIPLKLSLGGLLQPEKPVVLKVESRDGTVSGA

Row | IC50 (human NK1 receptor [1]) | remaining activity at 1 µM (human NK1 receptor [2]) | Preincubation (30 min) (%) (enzyme activities relative to group without test compound) (human CYP3A4) | SMILES
1 | 1350 pM | 14% | 15% | Cc1cc(F)ccc1[C@H]1CN(C[C@H]2CC[C@H](CC(=O)O)CC2)CC[C@@H]1C(=O)N(C)[C@@H](C)c1cc(C(F)(F)F)cc(C(F)(F)F)c1 [Example 14, trans-{4-[(3 S,4S)-4-{[(S)-1-(3,5-Bistrifluoromethylphenyl)ethyl]methylcarbamoyl}-3-(4-fluoro-2-methylphenyl)piperidin-1-ylmethyl]cyclohexyl}lacetic acid]
2 | 646 pM | 4.1% | 18% | Cc1cc(F)ccc1[C@H]1CN(C[C@H]2CC[C@@H](CC(=O)O)CC2)CC[C@@H]1C(=O)N(C)[C@@H](C)c1cc(C(F)(F)F)cc(C(F)(F)F)c1 [Example 13, cis-{4-[(3S,4S)-4-{[(S)-1-(3,5-Bistrifluoromethylphenyl)ethyl]methylcarbamoyl}-3-(4-fluoro-2-methylphenyl)piperidin-1-ylmethyl]cyclohexyl}acetic acid]
